One block for each molecule: values may come before it.
Assays:
[1] = format: physicochemical
Source text: Thus the long term stability of PNT with triacetin (or other oily vehicles) is highly unexpected.
After one month in accelerated stability the components of the composition appeared to degrade rapidly with a resulting colour change from an off-white to a dark yellow with dark brown sludge forming. The degradation components appeared to include a gas, resulting in the container swelling from the resultant pressure. Accordingly, the formulations described in CN 1517090 are not known to be storage stable.

[2] = at 20° C.; cited from earlier work
[3] = intramuscular administration; Friton 2003; cited from earlier work
[4] = blood pH (7.2); cited from earlier work

chemical stability on storage [1]: chemically unstable on storage
SMILES: CC1(C)S[C@@H]2[C@H](NC(=O)Cc3ccccc3)C(=O)N2[C@H]1C(=O)O [benzylpenicillin]

SMILES: CC(=O)OCC(COC(C)=O)OC(C)=O [Triacetin]
viscosity [2]: approximately 23 mPas

chemical stability of composition [1]: chemically unstable | chemical stability on storage [1]: chemically unstable on storage
SMILES: CC1(C)S[C@@H]2[C@H](NC(=O)Cc3ccccc3)C(=O)N2[C@H]1C(=O)O.CCN(CC)CCOC(=O)c1ccc(N)cc1 [procaine penicillin]

SMILES: CCN(CC)CCOC(=O)[C@@H]1N2C(=O)[C@@H](NC(=O)Cc3ccccc3)[C@H]2SC1(C)C.I [penethamate hydroiodide]
time to peak serum levels (measured as dissociated penicillin G) after injection [3]: 3.76 h | active drug present in its hydrolysed form (benzylpenicillin) at equilibrium [4]: 91.8%

From patent publication US10376585B2, “Injectable antibiotic formulations and their methods of use” (BAYER NEW ZEALAND LTD, priority 2012, dated 2019)
